Data published in article PMC4028107, “Adenosine deaminase activity modulation by some street drug: molecular docking simulation and experimental investigation” (DARU Journal of Pharmaceutical Sciences, 2014).

Experiments:
[1] = biological target: T1, Adenosine deaminase (EC 3.5.4.4) extracted from bovine spleen (Bos taurus, UniProt P56658); test: biochemical; format: biochemical; conditions: for IC50: 2 mg/ml adenosine deaminase enzyme, 37°C, 30 min incubation, PBS pH 7.4, compounds 5–300 μM
T1 construct: Adenosine deaminase (EC 3.5.4.4) extracted from bovine spleen; purchased sigma; host or cells: bovine spleen (tissue extract)
T1 sequence (P56658 1-363): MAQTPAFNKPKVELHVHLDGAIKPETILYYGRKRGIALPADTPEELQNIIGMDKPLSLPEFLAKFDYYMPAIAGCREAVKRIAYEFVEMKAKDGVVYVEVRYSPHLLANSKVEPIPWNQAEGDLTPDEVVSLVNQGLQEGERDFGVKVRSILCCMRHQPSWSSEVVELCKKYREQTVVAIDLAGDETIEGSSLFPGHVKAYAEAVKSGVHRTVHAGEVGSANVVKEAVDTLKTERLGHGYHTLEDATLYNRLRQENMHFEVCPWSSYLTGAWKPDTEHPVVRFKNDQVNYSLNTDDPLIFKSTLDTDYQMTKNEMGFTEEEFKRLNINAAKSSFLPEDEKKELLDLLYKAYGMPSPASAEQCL
Description: Adenosine deaminase (EC 3.5.4.4) extracted from bovine spleen was purchased from sigma, and all other used materials were of analytical grade and acquired from Merck. PBS that is used in assay was adjusted at 7.4, at which, enzyme has optimal activity in [38, 39]. All solutions were prepared in MilliQ (Millipore, USA) water.
Released ammonia resulted by enzyme activity was determined by specific Berthelot colorimetric method which was used for micro determination of ADA activity in serum. […] In this process sodium nitroprusside is used as the catalyst. The reaction was initiated by addition of adenosine as a substrate at 37°C to preincubated enzyme with different concentrations of tested compounds at different concentrations (5–300 μM). Finally, the enzymatic reaction was stopped at the end of 30 minutes of incubation by adding phenol nitroprusside solution. The mixture kept again for 30 minutes at 37°C before absorbance determination.
Obtained absorbance was normalized through blank sample, and IC50 values were calculated by Prism software (Ver. 5, GraphPad Software Inc., San Diego CA,).

adenosine deaminase [2] = biological target: T2, adenosine deaminase (Bos taurus, UniProt P56658); test: Fluorescence spectroscopy of ADA (Trp emission); format: binding, bovine; conditions: excitation 290 nm, emission 300-400 nm, pH 7.4, enzyme 6 μM, compounds 1.7 to 73.4 μM
T2 construct: Adenosine deaminase (EC 3.5.4.4) extracted from bovine spleen; purchased sigma; host or cells: bovine spleen (tissue extract)
T2 sequence (P56658 1-363): T1 sequence (P56658 1-363)
Description: Fluorescence spectroscopy was performed on a Hitachi fluorescence spectrophotometer model MPF-4 with 1 cm path length fluorescence cuvette and final volume of 400 μL. The excitation wavelength was adjusted in 290 nm, and the emission was scanned every 1 nm in the range of 300 to 400 nm.

adenosine deaminase [3] = biological target: T2, adenosine deaminase; test: Circular dichroism spectroscopy of ADA; design: species or system bovine; conditions: far-UV 200–260 nm, pH 7.4; cocaine concentration around 180 μM
Description: CD spectra were measured in the far-UV (200–260 nm) region with JASCO J-715 spectropolarimeter (Japan). JASCO J-715 software not only gave us the possibility of data smoothing, but also used to predict the secondary structure changes of the protein according to the statistical method. Each scan was recorded in 1 nm increments at 37°C, repeated three times, and averaged. The protein was in 0.1 M PBS buffer, pH = 7.4, and its concentration was adjusted to 2 mg/ml in 1 cm path length cuvette. The results were expressed in molar ellipticity [θ] (deg cm^2.dmol^−1).

SMILES	IC50 [1]	change in fluorescence spectra of ADA (adenosine deaminase [2])	concentration up to which ADA was activated [1]	change in CD spectra of ADA (adenosine deaminase [3])
CCOc1ccc2c3c1O[C@H]1[C@@H](O)C=C[C@H]4[C@@H](C2)N(C)CC[C@@]341 [Ethylmorphine]	35 µM	do not show noticeable change and shift	–	–
COC1=CC=C2[C@H]3Cc4ccc(OC)c5c4[C@@]2(CCN3C)[C@H]1O5 [Thebaine]	163 µM	do not show noticeable change and shift	50 µM	–
COC(=O)[C@H]1[C@@H](OC(=O)c2ccccc2)C[C@@H]2CC[C@H]1N2C [Cocaine]	180 µM	bathochromic shift	–	drastic changes
